# Values joined by “and” are separate entries in the source; they are usually repeats but may differ in a detail not shown here. Equal entries are not always repeated.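 Interpolation was linear, between the two tested concentrations surrounding the appropriate level; five concentrations were tested over 48 hours in 96-well plates. The concentration for 50% growth inhibition is given as GI50. TGI marks complete inhibition of growth.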
# Columns and labels:
# Assay in all cases: growth of human tumour cells (NCI), 48 h
# [1] = test system: ACHN renal
# [2] = test system: COLO 205 colon
# [3] = test system: HCT-15 colon
# [4] = test system: IGROV1 ovarian
# [5] = test system: M14 melanoma
# [6] = test system: MALME-3M melanoma
# [7] = test system: SK-MEL-5 melanoma
# [8] = test system: SK-OV-3 ovarian
# [9] = test system: TK-10 renal
# [10] = test system: U251 CNS
Structure (SMILES),GI50 [1],TGI [1],GI50 [2],TGI [2],GI50 [3],TGI [3],GI50 [4],TGI [4],GI50 [5],TGI [5],GI50 [6],TGI [6],GI50 [7],TGI [7],GI50 [8],TGI [8],GI50 [9],TGI [9],GI50 [10],TGI [10]
Nc1nc(-c2ccccc2)nc(N)c1N=O,4 µM,14.1 µM,2.59 µM,8.45 µM,3.03 µM,11.1 µM,11.8 µM,54 µM,5.68 µM,19.5 µM,6.71 µM,22.9 µM,8.21 µM,20.8 µM,11.9 µM,26 µM,4.68 µM,14.8 µM,5.13 µM,17.9 µM
O=C(NP(=O)(N1CC1)N1CC1)c1cc(I)ccc1I,,> 65.1 µM,,> 100 µM,,> 100 µM,,> 100 µM,,> 100 µM,,> 92 µM,,> 100 µM,,89.9 µM,,> 100 µM,,> 100 µM
COC(=O)CCC(=O)CC(=O)C(=O)Nc1c(Cl)cc([N+](=O)[O-])cc1Cl,,> 100 µM,,> 100 µM,,> 100 µM,,> 100 µM,,> 100 µM,,> 100 µM,,> 100 µM,,> 100 µM,,> 100 µM,,> 100 µM
c1cc(CNCCN2CCNCC2)ccn1,,> 100 µM,,> 100 µM,,> 100 µM,,> 100 µM,,> 100 µM,,> 100 µM,,> 100 µM,,> 100 µM,,86.7 µM,,> 100 µM
CCCCCCCCCCCC1CCCC(C)N1 (centres undefined),11.4 µM,25.5 µM,1.56 µM,,2.85 µM,13.3 µM and 104 µM,6.13 µM,19.2 µM and 142 µM,8.47 µM,31.7 µM,8.03 µM,22.7 µM and 166 µM,8.15 µM,21.4 µM and 93.7 µM,14.5 µM,28.5 µM and 158 µM,6.47 µM,19.3 µM,4.53 µM,18.2 µM and 128 µM
CN1CCN(c2ccc3nc(-c4ccc5nc(-c6ccc(OCCC(C)(C)C)cc6)[nH]c5c4)[nH]c3c2)CC1,9.2 µM,22.8 µM,12.9 µM,30 µM,12.1 µM,28.2 µM,7.69 µM,31.6 µM,2.39 µM,6.53 µM,12.2 µM,27.2 µM,12.7 µM,27.6 µM,18 µM,36 µM,18.2 µM,38.8 µM,2.16 µM,3.81 µM
C=C1CC/C=C(\C)C(=O)C[C@@H]2[C@@H]1CC2(C)C,,8.67 µM,,3.87 µM,,3.23 µM,,12.9 µM,,19.7 µM,,10.5 µM,,10.5 µM,,> 57.5 µM,,17.1 µM,,49.5 µM
COc1cc2c(cc1Nc1nc(Nc3ccsc3C(N)=O)c3cc[nH]c3n1)N(C(=O)CN(C)C)CCC2(C)C,2.56 µM,5.53 µM,< 0.0025 µM,0.887 µM,1.84 µM,5.62 µM,3.23 µM,7.31 µM,1.43 µM,5.68 µM,1.48 µM,5.62 µM,0.797 µM,3.89 µM,3.64 µM,6.94 µM,1.36 µM,4.97 µM,3.09 µM,6.25 µM
O=C(Nc1nc2ncn(CCNCc3ccccc3)c2c(=O)[nH]1)c1ccccc1,,> 100 µM,,> 100 µM,,> 100 µM,,> 100 µM,,> 100 µM,,> 100 µM,,> 100 µM,,> 100 µM,,> 100 µM,,> 100 µM
COc1cc(OC)c(/C=C/c2cnc3ccccc3n2)c(OC)c1,,> 10 µM,,> 10 µM,,> 10 µM,,> 10 µM,,> 10 µM,,> 10 µM,,> 10 µM,,> 10 µM,,> 10 µM,,> 10 µM
CCN(C(=O)c1cc(F)ccc1Oc1cncnc1N1CC2(CCN(CC3CCC(NS(=O)(=O)CC)CC3)CC2)C1)C(C)C (centres undefined),> 100 µM,> 100 µM,> 100 µM,> 100 µM,> 100 µM,> 100 µM,> 100 µM,> 100 µM,> 100 µM,> 100 µM,> 100 µM,> 100 µM,> 100 µM,> 100 µM,> 100 µM,> 100 µM,> 100 µM,> 100 µM,> 100 µM,> 100 µM
NC(=O)c1cc(-c2ccc(F)cc2)cc(-c2ccncc2)c1N,> 25 µM,> 25 µM,> 25 µM,> 25 µM,> 25 µM,> 25 µM,> 25 µM,> 25 µM,> 25 µM,> 25 µM,> 25 µM,> 25 µM,> 20.2 µM,> 25 µM,> 25 µM,> 25 µM,> 25 µM,> 25 µM,> 25 µM,> 25 µM
O=C(O)/C(=C/C=C/c1ccccc1)c1csc(-c2nc(/C(=C\C=C\c3ccccc3)C(=O)O)cs2)n1,,92.5 µM,,51.3 µM,,> 100 µM,,> 100 µM,,61 µM,,60 µM,,86.3 µM,,> 100 µM,,> 100 µM,,> 100 µM
COc1ccc(/C(C#N)=C/c2ccc(OC)c(OC)c2)cc1,,> 100 µM,,> 100 µM,,> 100 µM,,> 100 µM,,> 100 µM,,> 100 µM,,> 100 µM,,> 100 µM,,> 100 µM,,> 100 µM
CN(CC(=O)N(Cc1ccc(C2CCCCC2)cc1)c1ccc(C(=O)O)c(O)c1)S(=O)(=O)c1c(F)c(F)c(F)c(F)c1F,15.3 µM,28.8 µM,12.7 µM,26.5 µM,2.08 µM,4.43 µM,1.85 µM,4.08 µM,3.07 µM,13 µM,2.89 µM,12.3 µM,14 µM,27.3 µM,16.5 µM,31.1 µM,16.5 µM,30.4 µM,1.81 µM,3.82 µM
CCCCS(=O)(=O)CCC(N)C(=O)O (centres undefined),,> 100 µM,,> 100 µM,,> 100 µM,,> 100 µM,,> 100 µM,,> 100 µM,,> 100 µM,,> 100 µM,,> 100 µM,,> 100 µM

# — PubChem BioAssay (NCI)
